Results taken from publication PMC5114727, “Biological characterization of chemically diverse compounds targeting the Plasmodium falciparum coenzyme A synthesis pathway” (Parasites & Vectors, 2016).
“And” between values parts separate entries of the source, which are not always exact repeats. Equal entries are not always repeated.

Assays:
PC-3 cells = test: Resazurin cytotoxicity assay, PC-3; type: cell-based, human
Description: (§1) An initial indication of compound selectivity over human cells had previously been obtained through comparison of the compounds’ IC50 values against P. falciparum asexual stages and HEK293 [22]. In the present study, the selectivity investigation was extended to a small panel of human cancer cell lines, namely the estrogen receptor (ER)-positive breast cancer cell line MCF7, the ER-negative MDA-MB-231, as well as the human prostate cancer line, PC-3. Additionally, the cytotoxic effects on mouse embryonic fibroblast cell line 3T3, which serves as the host cell for T. cruzi in our image-based amastigote assay, were investigated.
(§2) Cytotoxicity of the compounds was assessed against a panel of human cancer cell lines, namely the estrogen receptor (ER)-positive breast cancer cell line MCF7, the ER-negative MDA-MB-231 and the prostate cancer line PC-3. All the cell lines were purchased from ATCC and maintained as previously described. Two biological replicates consisting of two technical replicates each were performed to generate concentration response curves (CRC) with a final highest concentration of 40 μM. A resazurin-based assay was utilized to determine cell viability as described earlier. Additionally, the cytotoxic effects on the mouse embryonic fibroblast cell line 3T3 were assessed as part of the Trypanosoma cruzi amastigote image-based assay as outlined in [35].

[1] = test system: P. falciparum asexual blood stages (PfAS); test: Chemical rescue with CoA pathway intermediates, asexual stages; type: cell-based, Plasmodium falciparum; conditions: for Percent rescue ± SEM by CoA, PfAS: CoA 0.8 mM; for Percent rescue ± SEM by CoA, PfAS / Percent rescue ± SEM by dephospho CoA, PfAS / Percent rescue ± SEM by pantethine, PfAS / Percent rescue ± SEM by pantothenate, PfAS: inhibitor at IC80; for Percent rescue ± SEM by dephospho CoA, PfAS: dP-CoA 0.8 mM; for Percent rescue ± SEM by pantethine, PfAS: pantethine 125 μM; for Percent rescue ± SEM by pantothenate, PfAS: pantothenate 300 μM
Experimental: (§3) Pantothenate is the first substrate of the pathway (Fig. 1) and its addition was intended to rescue the action of possible competitive inhibitors of the first enzyme, PanK. […] It is not known, whether P. falciparum is capable of pantetheine phosphorylation for utilization in CoA synthesis. […] Finally, the rescue ability of dP-CoA, the final substrate of CoA synthesis, was tested. […] Inhibitors competing with dP-CoA for DPCK binding were expected to be displaced, thereby rescuing parasite survival, by dP-CoA supplementation in a concentration dependent manner.
(§4) An imaging based assay was utilised to assess the chemical rescue on asexual stages of P. falciparum as described previously. All the pathway intermediates were purchased from Sigma. CoA and dP-CoA were dissolved in sterile distilled water to obtain a 20 mM stock solution, which was then aliquoted and stored at -20 °C until use. […] Each pathway intermediate was tested on the parasites at a range of concentrations to assess potential toxicity. […] On early stage P. falciparum gametocytes the same concentrations as for CoA were tested for dP-CoA; against asexual blood stage P. falciparum, late stage gametocytes and Trypanosoma b. brucei five dP-CoA concentrations were tested (2 mM, 1.5 mM, 1 mM, 0.75 mM and 0.5 mM).
The same concentration ranges of the CoA pathway intermediates were supplemented to parasites treated with the experimental compounds. The inhibitors were used at their respective final assay concentration of IC80 (as determined previously in the corresponding P. falciparum development stage or T. b. brucei assay). […] The negative control used in each assay was 0.4% DMSO, whilst the positive control was 2 μM artemisinin for asexual P. falciparum blood stages and 5 μM puromycin for all gametocyte stages and T. b. brucei. The percentage growth of the respective parasites following compound treatment was determined using Microsoft ® Excel 2010, and compared with their controls. All rescue assays were performed as two independent experiments each in duplicate point.

3T3 cells = test: 3T3 host cell cytotoxicity (part of T. cruzi amastigote image-based assay); design: species or system mouse; conditions: bound = highest concentration with < 50 % inhibition; read-out: 3T3 cytotoxicity IC50 ± SEM
Description: as §1, §2

HEK293 cells = conditions: as previously reported; read-out: HEK293 cytotoxicity IC50 ± SEM; cited from earlier work
T. cruzi trypomastigotes = test: T. cruzi trypomastigote PrestoBlue assay; type: cell-based, Trypanosoma cruzi; conditions: for T. cruzi trypomastigote percent inhibition at the highest concentration tested: 40 µM, given if an IC50 could not be calculated
Experimental: Compound activity against T. cruzi trypomastigotes was assessed in two independent experiments, without technical repeats, at a final highest compound concentration of 40 μM in concentration-response PrestoBlue assay, as previously described.

T. cruzi amastigotes = test: T. cruzi amastigote image-based assay in 3T3 host cells; type: cell-based, Trypanosoma cruzi; conditions: 40 µM per footnote; given if an IC50 could not be calculated
Experimental: The next step taken was to determine whether the activity of the compounds was confined to P. falciparum, or whether it extended to other protozoan parasites. Compound activity against two members of another clinically important group of parasites, the kinetoplastids T. cruzi and T. b. brucei was determined. The sensitive high content imaging assay used to determine compound activity against T. cruzi assesses the intracellular amastigote life form of the parasite in the 3T3 host cell. It is important to simultaneously assess compound activity against 3T3 cells to determine potential cytotoxicity against the host cell line, since this could result in a false positive outcome. The T. b. brucei assay employs the REDOX indicator Alamar Blue to assess viability, which was developed into a 384-well assay format.
Compound activity against T. cruzi amastigotes was assessed in an image-based assay in single point concentration-response and three biological replicates, at a final highest compound concentration of […], as previously described.

[2] = test system: T. b. brucei trypomastigote; test: T. b. brucei resazurin (Alamar Blue) viability assay; type: cell-based, Trypanosoma brucei brucei; conditions: for IC50: highest concentration 40 μM, read-out: T. b. brucei trypomastigote IC50 ± SEM
Experimental: Compound activity against two members of another clinically important group of parasites, the kinetoplastids T. cruzi and T. b. brucei was determined. The sensitive high content imaging assay used to determine compound activity against T. cruzi assesses the intracellular amastigote life form of the parasite in the 3T3 host cell. […] The T. b. brucei assay employs the REDOX indicator Alamar Blue to assess viability, which was developed into a 384-well assay format.
Compound activity against T. b. brucei was assessed in a resazurin-based viability assay in concentration-response assays, without technical repeats, in two experimental replicates at a highest concentration of 40 μM, as previously described.

[3] = test system: P. falciparum asexual blood stages / early gametocytes; test: Chemical rescue of MMV000570 (Table S3B; PfAS and PfEG replicates, columns not assignable); type: cell-based, Plasmodium falciparum; conditions: stage and replicate not assignable
Experimental: as §4
(§5) The same concentration ranges of the CoA pathway intermediates were supplemented to parasites treated with the experimental compounds. […] The negative control used in each assay was 0.4% DMSO, whilst the positive control was 2 μM artemisinin for asexual P. falciparum blood stages and 5 μM puromycin for all gametocyte stages and T. b. brucei. The percentage growth of the respective parasites following compound treatment was determined using Microsoft ® Excel 2010, and compared with their controls. All rescue assays were performed as two independent experiments each in duplicate point.

MCF7 cells = test: Resazurin cytotoxicity assay, MCF7; type: cell-based, human
Description: as §1, §2

MDA-MB-231 cells = test: Resazurin cytotoxicity assay, MDA-MB-231; type: cell-based, human
Description: as §1, §2

[4] = test system: late stage gametocytes (stage IV to V) of P. falciparum line NF54^Pfs16; test: Gametocyte luciferase assay, late stage; type: cell-based, Plasmodium falciparum
Description: (§6) To investigate a potential role of CoA biosynthesis for host to vector transmission of the malaria parasite, we investigated the activity of our compounds on P. falciparum gametocytes, the sexual stages of P. falciparum, essential for malaria transmission. […] Parasite stage-specificity and gametocytocidal activity of the compounds was therefore investigated, utilizing a luciferase-based approach on early stage (development from stage I to IIb/III [30]) and late stage (IV to V [51]) gametocytes.
(§7) Induction of P. falciparum gametocyte differentiation and gametocyte culturing were performed as previously described. Compound activity against early stage gametocytes (covering the development from stage I to IIb/III) and late stage gametocytes (stage IV to V) of the recombinant P. falciparum line NF54^Pfs16 was assessed in concentration-response assays, in two experimental replicates consisting of two technical repeats each, at a highest concentration of 40 μM, as described earlier.

[5] = biological target: early stage gametocytes (stage I to IIb/III) of P. falciparum line NF54^Pfs16; test: Gametocyte luciferase assay, early stage; type: cell-based, Plasmodium falciparum; conditions: highest concentration 40 μM; read-out: Early stage gametocyte IC50 ± SEM
Description: as §6, §7

[6] = test system: panel of human cancer cell lines (MCF7, MDA-MB-231, PC-3); test: Cytotoxicity across the panel of cell lines; type: cell-based
Description: as §1, §2

[7] = test system: early stage gametocytes (stage I to IIb/III) of P. falciparum line NF54^Pfs16; conditions: cited from earlier work
[8] = test system: P. falciparum asexual blood stage; conditions: cited from earlier work; for IC50: as previously reported, read-out: Asexual P. falciparum IC50 ± SEM
[9] = test system: P. falciparum early stage gametocytes (PfEG, stage I-III); test: Chemical rescue with CoA pathway intermediates, early stage gametocytes; type: cell-based, Plasmodium falciparum; conditions: inhibitor at IC80
Experimental: as §3, §4, §5

[10] = test system: P. falciparum developmental stages; test: Activity across all P. falciparum life-cycle stages tested (asexual, early and late gametocytes); type: cell-based, Plasmodium falciparum; conditions: early and late stage gametocytes
Experimental: as §7

[11] = 40 µM, given if an IC50 could not be calculated

CCc1ccc(Nc2cc(C)c3ccc(O)cc3n2)cc1.Cl [MMV000570]
PC-3 percent inhibition at the highest concentration tested (PC-3 cells; 40 µM): 98% | Rescue of growth inhibitory effect by any of the intermediates (in words) ([1]; compound at 1 μM): could not effectively be rescued by any of the intermediates | IC50 (3T3 cells): > 40 µM | IC50 (HEK293 cells): ~40 µM | T. cruzi trypomastigote percent inhibition at the highest concentration tested (T. cruzi trypomastigotes): 100% | T. cruzi amastigote percent inhibition at the highest concentration tested (T. cruzi amastigotes): 96% | IC50 [2]: 5.85 ± 1.11 µM | percent rescue averages ± SEM by CoA, tested at IC80 concentration [3]: 6.4% and 8.1% and -1.6% and 26.7% | percent rescue averages ± SEM by pantothenate, tested at IC50 concentration [3]: 3.5% and -0.6% and 4.3% and 28.6% | percent rescue averages ± SEM by pantothenate, tested at IC80 concentration [3]: 3.1% and 2.2% and 2.3% and 5.2% | MCF7 percent inhibition at the highest concentration tested (MCF7 cells; 40 µM): 96% | MDA-MB-231 percent inhibition at the highest concentration tested (MDA-MB-231 cells; 40 µM): 90%

COc1ccc2c(=O)cc(C(Cl)(Cl)Cl)oc2c1 [MMV665820]
inhibition plateau level of the concentration-response curve, PC-3 (PC-3 cells): 80% | Percent rescue ± SEM by CoA, PfAS [1]: 113.3 ± 12.3% | Percent rescue ± SEM by dephospho CoA, PfAS [1]: 88.6 ± 18.3% | Percent rescue ± SEM by pantethine, PfAS [1]: No | Percent rescue ± SEM by pantothenate, PfAS [1]: No | Late stage gametocyte percent inhibition at the highest concentration tested [4, 11]: 69% | T. cruzi trypomastigote percent inhibition at the highest concentration tested (T. cruzi trypomastigotes): 100% | IC50 [5]: 0.44 ± 0.03 µM | T. cruzi amastigote percent inhibition at the highest concentration tested (T. cruzi amastigotes): 62% | IC50 [2]: 2.5 µM | IC50 ([6]; MCF7, MDA-MB-231, PC-3, read-out: IC50 range against the cancer cell lines): 0.27 to 0.43 µM | inhibition against early stage gametocytes in earlier dose-response ([7]; 1 μM): about 50% | IC50 [8]: 0.58 ± 0.08 µM | plateau of P. falciparum growth inhibition ([8]; asexual blood stage): 100% | Percent rescue ± SEM by pantethine, PfEG ([9]; pantethine 10 mM): No | Percent rescue ± SEM by pantothenate, PfEG ([9]; pantothenate 625 μM): No | inhibition plateau level of the concentration-response curve, MDA-MB-231 (MDA-MB-231 cells): 43%

OC1CCCCC1C1(NC(=S)Nc2ccccc2)CCCCC1 (centres unmarked) [MMV665980]
IC50 (PC-3 cells; highest concentration 40 μM, bound = highest concentration with < 50 % inhibition, read-out: PC-3 cytotoxicity IC50 ± SEM): > 20 µM | activity against all P. falciparum development stages tested (in words) [10]: moderate, single digit micromolar activity | Percent rescue ± SEM by CoA, PfAS [1]: 54.4 ± 2.5% | Percent rescue ± SEM by dephospho CoA, PfAS [1]: 46.0 ± 2.6% | Percent rescue ± SEM by pantethine, PfAS [1]: No | Percent rescue ± SEM by pantothenate, PfAS [1]: No | IC50 (3T3 cells): > 40 µM | IC50 ([4]; highest concentration 40 μM, read-out: Late stage gametocyte IC50 ± SEM): 4.15 ± 0.56 µM | IC50 (HEK293 cells): > 40 µM | IC50 (T. cruzi trypomastigotes; highest concentration 40 μM, read-out: T. cruzi trypomastigote IC50 ± SEM): 4.42 ± 0.89 µM | IC50 [5]: 7.54 ± 0.39 µM | T. cruzi amastigote percent inhibition at the highest concentration tested (T. cruzi amastigotes): 70% | T. b. brucei trypomastigote percent inhibition at the highest concentration tested [2, 11]: 100% | cytotoxicity against any of the cell lines investigated (in words) ([6]; up to the highest tested concentration of 40 μM): no or only negligible cytotoxicity | gametocytocidal activity in earlier screen versus hit threshold (in words) ([7]; screening concentration 5 μM, threshold 50% activity): lower than the hit threshold | IC50 [8]: 6.31 ± 1.06 µM | IC50 (MCF7 cells; highest concentration 40 μM, bound = highest concentration with < 50 % inhibition, read-out: MCF7 cytotoxicity IC50 ± SEM): > 40 µM | IC50 (MDA-MB-231 cells; highest concentration 40 μM, bound = highest concentration with < 50 % inhibition, read-out: MDA-MB-231 cytotoxicity IC50 ± SEM): > 40 µM
